# Assay results from patent EP0672419A1, “BLOOD PRESSURE REGULATOR” (Asahi Kasei Kogyo Kabushiki Kaisha, priority 1991, dated 1995).
# Legend:
# adult mongrel dogs [1] = assay: Induced hypotension in ten halothane-anesthetized dogs, average arterial blood pressure kept at 60 mmHg for 60 min (Example 6); format: in vivo, dog; conditions: mean ± S.D.
# Protocol: Adult mongrel dog, mean body weight 12.7 ± 3.1 kg, was anesthesized with pentobarbital 25 mg/kg, intratarcheally cannulated and maintained anesthetic condition by 0.87% halothane-oxygen (1 MAC, minimum anesthetic concentration). Respiration was controlled, by using respirator (Harvard Corp., Model 613E ) at Paco₂ 35±5 mmHg.
# Catheters were introduced to right femoral vein and artery for monitering arterial blood pressure, arterial blood gas analysis and infusion, and left cardiac catheter was introduced to left femoral […] to monitor left ventricular pressure. The changes in left ventricular pressure were differentiated continuously using a pressure processor (Nihon Koden Co., EQ-601G) to measure a maximum left ventricular systolic ratio (LV dp/dt max). The active ingredient of the present invention was administered to left femoral vein. Pulmonary arterial catheter (7F, Swan-Ganz® catheter) was introduced through right external jugular vein to monitor pulmonary artery pressure (PAP), paulmonary arterial wedge pressure (pulmonary capillary wedge pressure, PCWP) and cardiac output (CO). Pressure was monitored by using disporsable pressure monitoring kit (Gould Corp.), and electrocardiogram, arteriala pressure, left ventricle pressure (LVP) and maximum left ventricular systolic ratio (LV dp/dt max) were monitored by polygraph (Nihon Koden Co.) . Cardiac output (CO) was measured by thermal dilution method using cardiac output monitor (Nihon Koden Co Model MTC6210). Blood gas analysis was made by using automatic blood gas analyser (Radiometer Corp. ABL3). Mean artery pressure (MAP), cardiac index(CI) stroke volume index (SI), systemic vascular resistance (SVR), pulmonary vascular resistance (PVR), left ventricle stroke work index (LVSWI) and coronary perfusion pressure (CPP) were calculated by standard calculation equations, respectively.
# To maintain low blood pressure, the active ingredient was intraveneously administered for 60 minutes with maintaining maximum dose at 40 µg/kg and adjusting to maintain mean arteraial pressure at 50 mmHg. Physiological saline was used for maintenance infusion and administered in combination with the active ingredient at 7 ml/kg/hr. At blood sampling two fold volume of hydroxyethylstarch (6-HES) was supplementary administered. Body temperature was maintained at 37 ± 1°C by covering with blanket.
# Example 5 was repeated by substantially almost same manner using ten adult mongrel dogs, mean body weight 14.7±2.1 kg, applying same anesthetic condition with maintaining artificially hypotensive with average arterial blood pressure at 60 mmHg for 60 min., and administering the active ingredient desalanyl-deamino-c-CGRP.
# A value at time more than 60 minutes passed after completing the start of the experiment and stabilizing a depth of anesthesia and blood flow, was set as control (S₁). Monitorings were performed at 30 min. and 60 min. under reduced blood pressure in induced hypotension, and at 10 min. and 30 min. after terminating the reduced blood pressure in induced hypotension (after stopping administration), for totally five points of time.
# Results are shown by mean ± S.D.
# Amount of the active ingredient for maintaining average arterial blood pressure at 60 mmHg for 60 minutes was 5 µg-115 µg/kg.
# adult mongrel dogs [2] = assay: Phenylephrine-induced hypertension in four anesthetized dogs (Example 8); format: in vivo, dog; conditions: 10 µg/kg/hr on top of phenylephrine 10 µg/kg/min
# Protocol: Example 6 was repeated by substantially almost same manner using four adult mongrel dogs, mean body weight 12.3±3.0 kg, applying same anesthetic condition. After setting up the experiment at more than 60 minutes passing and confirming to stabilize the depth of anesthesia and blood flow, phenylephrine (hypertensor) 10 µg/kg/min was administered.
# Further after 10 minutes passed, the active ingredient, desalanyl-deamino-c-CGRP 10 µg/kg/hr was administered and at 10 min. and 20 min. after administration of the active ingredient, heart rate (HR) and mean a artery pressure (MAP) were measured.
# [3] = after terminating reduced blood pressure 10 min.
# [4] = after terminating reduced blood pressure 30 min.
# [5] = reduced blood pressure 30 min., MAP kept at 60 mmHg
# [6] = reduced blood pressure 60 min., MAP kept at 60 mmHg
# [7] = after administ. of CGRP 10 min(20min)
# [8] = after administ. of CGRP 20 min(30min)
substance,measurement,setting,value
desalanyl-deamino-c-CGRP,CI: Cardiac index,adult mongrel dogs [1]; [3],4.025±0.685 ** 1/min/m²
same,CO: Cardiac output,adult mongrel dogs [1]; [3],2.751±0.438 * 1/min
same,CPP: Coronary perfusion pressure,adult mongrel dogs [1]; [3],50.5±5.5 mmHg
same,CVP: Central venous pressure,adult mongrel dogs [1]; [3],2.9±1.5 mmHg
same,DAP: Diastolic artery pressure,adult mongrel dogs [1]; [3],59.2±5.1 mmHg
same,DPAP: Diastolic pulmonary artery pressure,adult mongrel dogs [1]; [3],11.3±5.2 mmHg
same,EtCO₂: Expiration terminal CO₂ pressure,adult mongrel dogs [1]; [3],39.5±5.8 mmHg
same,HR: Heart rate,adult mongrel dogs [1]; [3],158.8±33.8 beat/min
same,LV dp/dt max: maximum left ventricular systolic ratio,adult mongrel dogs [1]; [3],3370.0±783.2 mmHg/sec
same,LVEP: Left ventricle end pressure,adult mongrel dogs [1]; [3],0.1±0.3 mmHg
same,LVP: Left ventricle pressure,adult mongrel dogs [1]; [3],119.5±16.3 mmHg
same,LVSWI: Left ventricle stroke work index,adult mongrel dogs [1]; [3],23.970±6.998 g.m/beat/m²
same,MAP: Mean artery pressure,adult mongrel dogs [1]; [3],75.7±4.3 mmHg
same,MPAP: Mean pulmonary artery pressure,adult mongrel dogs [1]; [3],18.3±6.0 mmHg
same,PCWP: Pulmonary capillary wedge pressure,adult mongrel dogs [1]; [3],9.2±4.1 mmHg
same,PVR: Pulmonary vascular resistance,adult mongrel dogs [1]; [3],273.30±100.09 dynes · sec/cm⁵
same,RPP: Rate pressure products,adult mongrel dogs [1]; [3],14920.0±3480.0 mmHg.beat/min
same,RVSWI: Right ventricle stroke work index,adult mongrel dogs [1]; [3],5.209±1.501 g.m/beat/m²
same,SAP: Systolic artery pressure,adult mongrel dogs [1]; [3],94.4±7.2 mmHg
same,SI: Stroke index,adult mongrel dogs [1]; [3],26.300±6.720 ml/HR/m²
same,SPAP: Systolic pulmonary artery pressure,adult mongrel dogs [1]; [3],26.8±7.2 mmHg
same,SV: Stroke volumes,adult mongrel dogs [1]; [3],18.2 ± 5.63 mL/beat
same,SVR: Systemic vascular resistance,adult mongrel dogs [1]; [3],2162.0±419.2 dynes · sec/cm⁵
same,CI: Cardiac index,adult mongrel dogs [1]; [4],3.638±0.587 1/min/m²
same,CO: Cardiac output,adult mongrel dogs [1]; [4],2.487 ± 0.378 min⁻¹
same,CPP: Coronary perfusion pressure,adult mongrel dogs [1]; [4],63.5±5.3 mmHg
same,CVP: Central venous pressure,adult mongrel dogs [1]; [4],3.2±1.1 mmHg
same,DAP: Diastolic artery pressure,adult mongrel dogs [1]; [4],74.1±4.7 mmHg
same,DPAP: Diastolic pulmonary artery pressure,adult mongrel dogs [1]; [4],11.3±5.4 mmHg
same,EtCO₂: Expiration terminal CO₂ pressure,adult mongrel dogs [1]; [4],39.3±5.9 mmHg
same,HR: Heart rate,adult mongrel dogs [1]; [4],151.6±27.9 beat/min
same,LV dp/dt max: maximum left ventricular systolic ratio,adult mongrel dogs [1]; [4],3220.0±708.4 mmHg/sec
same,LVEP: Left ventricle end pressure,adult mongrel dogs [1]; [4],0.0±0.0 mmHg
same,LVP: Left ventricle pressure,adult mongrel dogs [1]; [4],132.3±20.0 mmHg
same,LVSWI: Left ventricle stroke work index,adult mongrel dogs [1]; [4],27.680±7.370 g.m/beat/m²
same,MAP: Mean artery pressure,adult mongrel dogs [1]; [4],92.8±6.3 mmHg
same,MPAP: Mean pulmonary artery pressure,adult mongrel dogs [1]; [4],18.7±6.3 mmHg
same,PCWP: Pulmonary capillary wedge pressure,adult mongrel dogs [1]; [4],10.6±4.5 mmHg
same,PVR: Pulmonary vascular resistance,adult mongrel dogs [1]; [4],269.10±109.58 dynes · sec/cm⁵
same,RPP: Rate pressure products,adult mongrel dogs [1]; [4],18100.0±3938.4 mmHg.beat/min
same,RVSWI: Right ventricle stroke work index,adult mongrel dogs [1]; [4],4.882±1.138 g.m/beat/m²
same,SAP: Systolic artery pressure,adult mongrel dogs [1]; [4],119.4±10.1 mmHg
same,SI: Stroke index,adult mongrel dogs [1]; [4],24.760±6.720 ml/HR/m²
same,SPAP: Systolic pulmonary artery pressure,adult mongrel dogs [1]; [4],27.4±7.2 mmHg
same,SV: Stroke volumes,adult mongrel dogs [1]; [4],17 ± 5.07 mL/beat
same,SVR: Systemic vascular resistance,adult mongrel dogs [1]; [4],2961.0±700.9 dynes · sec/cm⁵
same,CI: Cardiac index,adult mongrel dogs [1]; [5],3.418±0.692 1/min/m²
same,CO: Cardiac output,adult mongrel dogs [1]; [5],2.348 ± 0.528 min⁻¹
same,CPP: Coronary perfusion pressure,adult mongrel dogs [1]; [5],38.3±4.5 mmHg
same,CVP: Central venous pressure,adult mongrel dogs [1]; [5],2.5±1.1 mmHg
same,DAP: Diastolic artery pressure,adult mongrel dogs [1]; [5],47.3±2.8 mmHg
same,DPAP: Diastolic pulmonary artery pressure,adult mongrel dogs [1]; [5],9.9±4.0 mmHg
same,EtCO₂: Expiration terminal CO₂ pressure,adult mongrel dogs [1]; [5],38.5±5.6 mmHg
same,HR: Heart rate,adult mongrel dogs [1]; [5],149.3±31.7 beat/min
same,LV dp/dt max: maximum left ventricular systolic ratio,adult mongrel dogs [1]; [5],3070.0±771.8 mmHg/sec
same,LVEP: Left ventricle end pressure,adult mongrel dogs [1]; [5],0.0±0.0 mmHg
same,LVP: Left ventricle pressure,adult mongrel dogs [1]; [5],102.7±14.1 mmHg
same,LVSWI: Left ventricle stroke work index,adult mongrel dogs [1]; [5],16.906±5.750 g.m/beat/m²
same,MAP: Mean artery pressure,adult mongrel dogs [1]; [5],60.4±0.7 mmHg
same,MPAP: Mean pulmonary artery pressure,adult mongrel dogs [1]; [5],15.6±5.3 mmHg
same,PCWP: Pulmonary capillary wedge pressure,adult mongrel dogs [1]; [5],9.0±4.0 mmHg
same,PVR: Pulmonary vascular resistance,adult mongrel dogs [1]; [5],231.10±80.62 dynes · sec/cm⁵
same,RPP: Rate pressure products,adult mongrel dogs [1]; [5],11357.0±2260.5 mmHg.beat/min
same,RVSWI: Right ventricle stroke work index,adult mongrel dogs [1]; [5],3.979±1.239 g.m/beat/m²
same,SAP: Systolic artery pressure,adult mongrel dogs [1]; [5],76.5±4.8 mmHg
same,SI: Stroke index,adult mongrel dogs [1]; [5],23.810±6.952 ml/HR/m²
same,SPAP: Systolic pulmonary artery pressure,adult mongrel dogs [1]; [5],23.0±6.2 mmHg
same,SV: Stroke volumes,adult mongrel dogs [1]; [5],16.5 ± 5.78 mL/beat
same,SVR: Systemic vascular resistance,adult mongrel dogs [1]; [5],2054.0±455.6 dynes · sec/cm⁵
same,CI: Cardiac index,adult mongrel dogs [1]; [6],4.006 ±0.771 ** 1/min/m²
same,CO: Cardiac output,adult mongrel dogs [1]; [6],2.739 ±0.518 * 1/min
same,CPP: Coronary perfusion pressure,adult mongrel dogs [1]; [6],38.3±4.9 mmHg
same,CVP: Central venous pressure,adult mongrel dogs [1]; [6],2.2±1.2 mmHg
same,DAP: Diastolic artery pressure,adult mongrel dogs [1]; [6],47.7±2.6 mmHg
same,DPAP: Diastolic pulmonary artery pressure,adult mongrel dogs [1]; [6],11.3±4.9 mmHg
same,EtCO₂: Expiration terminal CO₂ pressure,adult mongrel dogs [1]; [6],39.8±6.9 mmHg
same,HR: Heart rate,adult mongrel dogs [1]; [6],154.3 ± 33.8 beat/min
same,LV dp/dt max: maximum left ventricular systolic ratio,adult mongrel dogs [1]; [6],3210.0±749.0 mmHg/sec
same,LVEP: Left ventricle end pressure,adult mongrel dogs [1]; [6],0.0±0.0 mmHg
same,LVP: Left ventricle pressure,adult mongrel dogs [1]; [6],104.7±16.3 mmHg
same,LVSWI: Left ventricle stroke work index,adult mongrel dogs [1]; [6],18.949±6.280 g.m/beat/m²
same,MAP: Mean artery pressure,adult mongrel dogs [1]; [6],60.1±0.9 mmHg
same,MPAP: Mean pulmonary artery pressure,adult mongrel dogs [1]; [6],17.7±5.9 mmHg
same,PCWP: Pulmonary capillary wedge pressure,adult mongrel dogs [1]; [6],9.4±4.7 mmHg
same,PVR: Pulmonary vascular resistance,adult mongrel dogs [1]; [6],251.20±97.14 dynes · sec/cm⁵
same,RPP: Rate pressure products,adult mongrel dogs [1]; [6],11462.0±2765.1 mmHg.beat/min
same,RVSWI: Right ventricle stroke work index,adult mongrel dogs [1]; [6],5.380±1.747 g.m/beat/m²
same,SAP: Systolic artery pressure,adult mongrel dogs [1]; [6],74.4±4.9 mmHg
same,SI: Stroke index,adult mongrel dogs [1]; [6],27.030 ±7.664 ml/HR/m²
same,SPAP: Systolic pulmonary artery pressure,adult mongrel dogs [1]; [6],25.5±7.3 mmHg
same,SV: Stroke volumes,adult mongrel dogs [1]; [6],18.5 ± 5.94 mL/beat
same,SVR: Systemic vascular resistance,adult mongrel dogs [1]; [6],1748.0±409.1 dynes · sec/cm⁵
same,HR: Heart rate,adult mongrel dogs [2]; [7],103 beats/min
same,MAP: Mean artery pressure,adult mongrel dogs [2]; [7],104.8 ±2.7 mmHg
same,HR: Heart rate,adult mongrel dogs [2]; [8],104±2.8 beat/min
same,MAP: Mean artery pressure,adult mongrel dogs [2]; [8],184±4.9 mmHg
